Results: ChEMBL document CHEMBL1687820, “Photolysis of hydrogen peroxide, an effective disinfection system via hydroxyl radical formation” (Antimicrob Agents Chemother, 2010)

Tests used:
Type in all cases: functional, organism-based
Enterococcus faecalis [1] = assay: Antibacterial activity against Enterococcus faecalis ATCC 29212 assessed as reduction of viable organism at 1 M followed by 300 mW of laser irradiation measured within 3 mins
Enterococcus faecalis [2] = assay: Antibacterial activity against Enterococcus faecalis ATCC 29212 assessed as concentration required to 4 log reduction of viable organism measured after 300 mW of laser irradiation
Staphylococcus aureus [3] = assay: Antibacterial activity against Staphylococcus aureus ATCC 25923 assessed as reduction of viable organism at 1 M followed by 300 mW of laser irradiation measured within 3 mins
[4] = system: Aggregatibacter actinomycetemcomitans; assay: Antibacterial activity against Aggregatibacter actinomycetemcomitans JCM 2434 assessed as concentration required to 4 log reduction of viable organism measured after 300 mW of laser irradiation
Streptococcus mutans [5] = assay: Antibacterial activity against Streptococcus mutans JCM 5705 assessed as concentration required to 5 log reduction of biofilm measured after 300 mW of laser irradiation by scanning electron microscopy
Streptococcus mutans [6] = assay: Antibacterial activity against Streptococcus mutans JCM 5705 assessed as concentration required to 4 log reduction of viable organism measured after 300 mW of laser irradiation
Streptococcus mutans [7] = assay: Antibacterial activity against Streptococcus mutans JCM 5705 assessed as reduction of biofilm at 1 M followed by 300 mW of laser irradiation measured within 3 mins by scanning electron microscopy
Streptococcus mutans [8] = assay: Antibacterial activity against Streptococcus mutans JCM 5705 assessed as reduction of biofilm measured within 3 mins by scanning electron microscopy
Enterococcus faecalis [9] = assay: Antibacterial activity against Enterococcus faecalis ATCC 29212 assessed as reduction of viable organism measured after 300 mW of laser irradiation
Streptococcus mutans [10] = assay: Antibacterial activity against Streptococcus mutans JCM 5705 assessed as reduction of viable organism at 1 M followed by 300 mW of laser irradiation measured within 3 mins
Staphylococcus aureus [11] = assay: Antibacterial activity against Staphylococcus aureus ATCC 25923 assessed as concentration required to 4 log reduction of viable organism measured after 300 mW of laser irradiation
[12] = system: Aggregatibacter actinomycetemcomitans; assay: Antibacterial activity against Aggregatibacter actinomycetemcomitans JCM 2434 assessed as reduction of viable organism at 1 M followed by 300 mW of laser irradiation measured within 3 mins

**Q.** What does the source list for `[OH]`?
**A.** log10CFU/ml (Enterococcus faecalis [1]): > 4; Activity (Enterococcus faecalis [2]): 258 µM; log10CFU/ml (Staphylococcus aureus [3]): > 4; Activity [4]: 89 µM; Activity (Streptococcus mutans [5]): 258 µM; Activity (Streptococcus mutans [6]): 173 µM; log10CFU/ml (Streptococcus mutans [7]): > 5; log10CFU/ml (Streptococcus mutans [8]): 1; Activity (Enterococcus faecalis [9]): Dose-dependent effect; log10CFU/ml (Streptococcus mutans [10]): 4; Activity (Staphylococcus aureus [11]): 173 µM; log10CFU/ml [12]: > 4
